Experimental data from the NIST ThermoML archive (doi:10.1016/j.jct.2017.03.026).
Several values for one entry are separate records, joined by “and”; a condition that tells them apart may be missing. Equal values may be shown once.

Experiment: molar heat capacity at constant pressure
Conditions: 101.33 kPa, Crystal, Small (less than 1 g) adiabatic calorimetry

O.O.O.O.O.O=S(=O)([O-])[O-].[Cu+2] [copper(II) sulfate pentahydrate]
Conditions | molar heat capacity at constant pressure
263.9 K | 273.18 J/K/mol
263.97 K | 273.31 J/K/mol
264.29 K | 274.33 J/K/mol
264.46 K | 276.88 J/K/mol
264.57 K | 275.1 J/K/mol
264.65 K | 275.18 J/K/mol
264.69 K | 262.84 J/K/mol
264.78 K | 276.45 J/K/mol
264.88 K | 264.12 J/K/mol
264.96 K | 275.1 J/K/mol
265.24 K | 276.28 J/K/mol
265.28 K | 276.6 J/K/mol
265.59 K | 277.08 J/K/mol
265.9 K | 279.45 J/K/mol
265.91 K | 277.83 J/K/mol and 277.48 J/K/mol
266.22 K | 277.65 J/K/mol
266.54 K | 279.67 J/K/mol
266.57 K | 280.8 J/K/mol
266.85 K | 280.57 J/K/mol
267.02 K | 283.47 J/K/mol
267.12 K | 265.84 J/K/mol
267.16 K | 281.25 J/K/mol
267.24 K | 282.99 J/K/mol
267.47 K | 265.72 J/K/mol
267.48 K | 282.69 J/K/mol
267.49 K | 288.14 J/K/mol
267.79 K | 284.49 J/K/mol
267.89 K | 286.74 J/K/mol
268.1 K | 286.29 J/K/mol
268.14 K | 289.09 J/K/mol
268.41 K | 287.96 J/K/mol
268.56 K | 290.56 J/K/mol
268.72 K | 290.51 J/K/mol
269.03 K | 293.88 J/K/mol
269.21 K | 298.25 J/K/mol
269.26 K | 299.3 J/K/mol
269.34 K | 297.25 J/K/mol
269.69 K | 302.97 J/K/mol
269.86 K | 308.74 J/K/mol
270 K | 267.7 J/K/mol and 309.44 J/K/mol
270.26 K | 267.96 J/K/mol
270.3 K | 319.67 J/K/mol
270.38 K | 339.72 J/K/mol and 332.91 J/K/mol
270.48 K | 333.13 J/K/mol
270.59 K | 334.95 J/K/mol
270.88 K | 351.88 J/K/mol
271.09 K | 383.64 J/K/mol
271.16 K | 376.43 J/K/mol
271.44 K | 383.42 J/K/mol
271.46 K | 344.42 J/K/mol
271.62 K | 269.24 J/K/mol
271.71 K | 298.82 J/K/mol
271.74 K | 277.83 J/K/mol
272.06 K | 278.7 J/K/mol
272.36 K | 280.4 J/K/mol
272.37 K | 278.52 J/K/mol
272.63 K | 281.05 J/K/mol
272.69 K | 278.7 J/K/mol
273.01 K | 279.65 J/K/mol
273.04 K | 280.4 J/K/mol
273.15 K | 269.83 J/K/mol and 270.1 J/K/mol
273.27 K | 284.34 J/K/mol
273.33 K | 280.47 J/K/mol
273.64 K | 279.37 J/K/mol
273.74 K | 281.2 J/K/mol
273.8 K | 282.84 J/K/mol
273.88 K | 270.91 J/K/mol
273.96 K | 280.1 J/K/mol
274.28 K | 278.85 J/K/mol
274.4 K | 281.05 J/K/mol
274.64 K | 282.74 J/K/mol
274.93 K | 283.52 J/K/mol
274.96 K | 280.85 J/K/mol
275.07 K | 282.49 J/K/mol
275.27 K | 285.02 J/K/mol
275.6 K | 285.39 J/K/mol
275.73 K | 282.32 J/K/mol
275.91 K | 281.82 J/K/mol
275.93 K | 272.18 J/K/mol
276.06 K | 284.92 J/K/mol
276.14 K | 271.78 J/K/mol
276.23 K | 282.52 J/K/mol
276.26 K | 287.86 J/K/mol
276.39 K | 283.24 J/K/mol
276.54 K | 281.92 J/K/mol
276.86 K | 283.12 J/K/mol
277.05 K | 284.94 J/K/mol
277.17 K | 283.69 J/K/mol
277.18 K | 287.21 J/K/mol
277.48 K | 283.57 J/K/mol
277.71 K | 285.67 J/K/mol
277.8 K | 284.34 J/K/mol
278.11 K | 284.89 J/K/mol
278.31 K | 288.04 J/K/mol
278.37 K | 287.66 J/K/mol
278.38 K | 274.55 J/K/mol
278.43 K | 285.39 J/K/mol
278.71 K | 274.33 J/K/mol
278.74 K | 285.79 J/K/mol
279.05 K | 283.84 J/K/mol
279.06 K | 284.24 J/K/mol
279.23 K | 285.22 J/K/mol
279.37 K | 283.12 J/K/mol
279.45 K | 283.07 J/K/mol
279.71 K | 282.87 J/K/mol
279.74 K | 283.84 J/K/mol
280 K | 275.2 J/K/mol
280.05 K | 283.69 J/K/mol
280.37 K | 283.64 J/K/mol
280.38 K | 282.97 J/K/mol
280.57 K | 284.27 J/K/mol
280.66 K | 275.03 J/K/mol
280.69 K | 284.49 J/K/mol
281.02 K | 283.67 J/K/mol
281.05 K | 283.87 J/K/mol
281.33 K | 283.77 J/K/mol
281.48 K | 276.46 J/K/mol
281.65 K | 284.82 J/K/mol
281.7 K | 285.57 J/K/mol
281.71 K | 285.19 J/K/mol
281.97 K | 283.94 J/K/mol
282.27 K | 286.17 J/K/mol
282.29 K | 285.04 J/K/mol
282.39 K | 285.19 J/K/mol
282.6 K | 284.74 J/K/mol
282.84 K | 286.54 J/K/mol
282.91 K | 276.63 J/K/mol
282.92 K | 285.39 J/K/mol
283.05 K | 284.89 J/K/mol
283.24 K | 285.54 J/K/mol
283.56 K | 286.89 J/K/mol
283.72 K | 285.69 J/K/mol
283.88 K | 287.24 J/K/mol
283.97 K | 287.54 J/K/mol
284.2 K | 286.71 J/K/mol
284.24 K | 278.43 J/K/mol
284.43 K | 286.89 J/K/mol
284.52 K | 286.41 J/K/mol
284.89 K | 287.61 J/K/mol
285.09 K | 286.69 J/K/mol
285.11 K | 288.04 J/K/mol
285.16 K | 279.3 J/K/mol
285.21 K | 287.79 J/K/mol
285.23 K | 288.34 J/K/mol
285.54 K | 287.61 J/K/mol
285.76 K | 287.46 J/K/mol
285.86 K | 289.01 J/K/mol
286.18 K | 287.86 J/K/mol
286.25 K | 289.39 J/K/mol
286.42 K | 287.76 J/K/mol
286.51 K | 286.29 J/K/mol
286.83 K | 288.26 J/K/mol
287 K | 280.48 J/K/mol
287.09 K | 288.31 J/K/mol
287.16 K | 288.41 J/K/mol
287.4 K | 289.81 J/K/mol
287.46 K | 280.82 J/K/mol
287.49 K | 289.64 J/K/mol
